{"source": "patent US6399585B1", "about": "“In Utero treatment of CFTR-related deficiencies” (priority 1996, dated 2002)", "key": {"ENaC": {"molecular_target": "T1, ENaC (Homo sapiens, UniProt P37088+P51168+P51170)", "T1 sequence (P37088 1-669)": "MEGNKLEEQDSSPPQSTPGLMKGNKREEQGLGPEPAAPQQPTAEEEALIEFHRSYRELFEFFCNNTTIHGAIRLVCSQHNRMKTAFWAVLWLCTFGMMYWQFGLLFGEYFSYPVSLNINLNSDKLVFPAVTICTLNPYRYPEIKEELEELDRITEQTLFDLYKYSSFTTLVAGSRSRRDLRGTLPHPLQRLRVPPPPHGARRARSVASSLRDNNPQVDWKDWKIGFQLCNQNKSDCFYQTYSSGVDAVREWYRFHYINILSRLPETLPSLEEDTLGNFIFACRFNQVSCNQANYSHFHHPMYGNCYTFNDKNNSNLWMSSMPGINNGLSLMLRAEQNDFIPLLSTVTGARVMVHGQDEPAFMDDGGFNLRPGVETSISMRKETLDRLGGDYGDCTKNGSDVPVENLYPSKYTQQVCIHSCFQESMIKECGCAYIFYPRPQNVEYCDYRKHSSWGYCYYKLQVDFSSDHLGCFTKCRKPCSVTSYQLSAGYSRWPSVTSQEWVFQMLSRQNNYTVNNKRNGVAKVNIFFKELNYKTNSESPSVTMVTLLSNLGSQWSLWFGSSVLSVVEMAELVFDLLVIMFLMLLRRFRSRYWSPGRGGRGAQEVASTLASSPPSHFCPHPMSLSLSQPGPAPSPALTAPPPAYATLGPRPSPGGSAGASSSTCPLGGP", "T1 sequence (P51168 1-640)": "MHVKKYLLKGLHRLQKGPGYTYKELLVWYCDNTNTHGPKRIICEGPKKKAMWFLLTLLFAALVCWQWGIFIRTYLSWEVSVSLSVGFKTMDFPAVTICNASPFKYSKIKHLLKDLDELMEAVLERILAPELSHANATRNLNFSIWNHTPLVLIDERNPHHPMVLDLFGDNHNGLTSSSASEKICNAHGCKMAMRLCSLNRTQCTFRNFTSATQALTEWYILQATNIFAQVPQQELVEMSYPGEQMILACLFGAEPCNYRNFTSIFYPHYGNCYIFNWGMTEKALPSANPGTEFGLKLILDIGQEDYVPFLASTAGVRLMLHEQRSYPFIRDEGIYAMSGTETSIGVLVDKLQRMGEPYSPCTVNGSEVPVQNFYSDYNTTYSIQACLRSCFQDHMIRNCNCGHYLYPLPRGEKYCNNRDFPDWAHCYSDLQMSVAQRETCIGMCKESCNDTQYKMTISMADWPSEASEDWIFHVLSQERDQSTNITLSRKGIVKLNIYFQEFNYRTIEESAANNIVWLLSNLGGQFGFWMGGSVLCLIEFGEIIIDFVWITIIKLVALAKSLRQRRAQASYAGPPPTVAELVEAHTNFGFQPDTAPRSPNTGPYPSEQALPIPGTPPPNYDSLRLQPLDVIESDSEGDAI", "T1 sequence (P51170 1-649)": "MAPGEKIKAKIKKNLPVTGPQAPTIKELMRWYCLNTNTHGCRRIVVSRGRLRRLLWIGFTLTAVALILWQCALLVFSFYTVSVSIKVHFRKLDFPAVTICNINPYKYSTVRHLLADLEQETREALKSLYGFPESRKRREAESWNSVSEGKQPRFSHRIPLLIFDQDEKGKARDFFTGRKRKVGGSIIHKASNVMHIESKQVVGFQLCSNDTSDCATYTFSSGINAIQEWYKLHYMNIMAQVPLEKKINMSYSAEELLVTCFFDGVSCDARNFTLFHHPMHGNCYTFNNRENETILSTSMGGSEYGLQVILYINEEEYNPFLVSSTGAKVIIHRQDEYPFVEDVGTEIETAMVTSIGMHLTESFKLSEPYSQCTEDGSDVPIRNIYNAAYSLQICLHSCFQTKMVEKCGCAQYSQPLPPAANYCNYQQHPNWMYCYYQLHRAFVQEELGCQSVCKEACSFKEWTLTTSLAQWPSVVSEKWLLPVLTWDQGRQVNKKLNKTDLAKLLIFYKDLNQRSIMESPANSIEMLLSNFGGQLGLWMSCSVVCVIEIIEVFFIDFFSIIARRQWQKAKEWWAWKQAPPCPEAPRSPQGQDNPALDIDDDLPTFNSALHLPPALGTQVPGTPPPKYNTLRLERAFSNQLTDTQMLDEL", "conditions": "cited from earlier work"}, "UTP receptors": {"tested_on": "UTP receptors", "test": "UTP receptors in intestines (Rhodamine green-UTP staining)", "type": "in vivo, mouse", "conditions": "knockout mice, ATP rescue, 65 day old mice", "description": "(§1) All tissues were sectioned and washed in phosphate buffered saline. Stock solutions (1 mM) of stains obtained from Molecular Probes were used. Two microliters/ml of either CaGreen-AM. (Molecular Probes) or Rhodamine green-UTP (Molecular Probes) was added to the tissue, then incubated for 1-2 hrs All samples were examined on a Noran Odyssey CLSM with a Nikon Diaphot inverted microscope. The software used for the imaging was Noran's Intervision running on a SGI Indy workstation.\nMultiple purinergic receptors and multiple signal transduction pathways are activated in different membrane domains of tracheal epithelia (Hwang, Schwiebert et al. 1996) (Devidas and Guggino 1997). Functional characterization of the P2 purinoceptor superfamily support a diverse functional role for ATP and related nucleotides in the regulation of tissue function (Williams 1996). To examine the possible role of these purinergic receptors, changes in UTP receptors in treated and normal intestines were examined using UTP labeled with fluorescent rhodamine green to stain sections of intestines.\nChanges in UTP receptors in ATP-treated intestines were examined using UTP labeled with fluorescent rhodamine green to stain sections of intestines."}, "cftr deficient mice": {"tested_on": "cftr deficient mice", "test": "Survival of mice after in utero ATP or cftr treatment", "type": "in vivo, mouse", "description": "(§2) Female heterozygous UNC knockout X C57bl/6 mouse 5th generation backcross mice were mated with either heterozygous and previously rescued homozygous knockout mice. At 15-16 days gestation animals were anesthetized as in Example (II)(C)(2) and the fetuses surgically exposed for injection. Virus (10^9 particles/ml of amniotic fluid) was injected into the amniotic fluid. Normal delivery of the animals was allowed to take place.\nas §2, with “20 ul” for “Virus (10^9 particles/ml”, “a 20 mM ATP in sterile physiological saline” for “amniotic fluid)”"}, "[1]": {"tested_on": "intracellular calcium stores", "test": "Intracellular calcium stores in intestines (Calcium Green, confocal microscopy)", "type": "in vivo, mouse", "conditions": "cftr−/− mice, in utero ATP-treatment, examined at 65 days old", "description": "as §1\nCalcium plays an integral role in secretion. […] Calcium Green™, a flourescent stain for intracellular calcium, was applied to cross-sections of both control and in utero cftr-treated cftr−/− and cftr+/− mice. All samples were examined by confocal microscopy.\nIntracellular calcium stores were evaluated after in utero ATP rescue, as previously described."}, "non-CFTR Cl- channels": {"tested_on": "non-CFTR Cl- channels", "conditions": "cited from earlier work"}, "[2]": {"conditions": "Table 8, living greater than 60 days"}}, "data": [{"smiles": "N=C(N)NC(=O)c1nc(Cl)c(N)nc1N", "note": "[Amiloride]", "values": [{"measurement": "ENaC conduction", "setting": "ENaC", "result": "block conduction"}]}, {"smiles": "Nc1nc(N)c2nc(-c3ccccc3)c(N)nc2n1", "note": "[triamterene]", "values": [{"measurement": "ENaC conduction", "setting": "ENaC", "result": "block conduction"}]}, {"smiles": "Nc1ncnc2c1ncn2[C@@H]1O[C@H](COP(=O)(O)OP(=O)(O)OP(=O)(O)O)[C@@H](O)[C@H]1O", "note": "[ATP, adenosine triphosphate]", "values": [{"measurement": "UTP receptors in intestines", "setting": "UTP receptors", "result": "restored the UTP receptors"}, {"measurement": "survival of cftr deficient mice", "setting": "cftr deficient mice; 20 ul of 20 mM ATP into amniotic fluid at 15-16 days gestation", "result": "improved the survival"}, {"measurement": "+/− Survivors, number", "setting": "cftr deficient mice; [2]", "result": 9}, {"measurement": "−/− Survivors, number", "setting": "cftr deficient mice; [2]", "result": 3}, {"measurement": "+/+ Survivors, number", "setting": "cftr deficient mice; Table 8, living greater than 60 days, treated at 15-16 days gestation", "result": 4}, {"measurement": "+/+ Survivors (%)", "setting": "cftr deficient mice; Table 8, share of survivors", "result": 25, "unit": "%"}, {"measurement": "+/− Survivors (%)", "setting": "cftr deficient mice; Table 8, share of survivors", "result": 56, "unit": "%"}, {"measurement": "−/− Survivors (%)", "setting": "cftr deficient mice; Table 8, share of survivors", "result": 19, "unit": "%"}, {"measurement": "toxicity inferred from genotype distribution of survivors", "setting": "cftr deficient mice; regardless of genotype", "result": "non-toxic"}, {"measurement": "intracellular Ca2+ stores in intestines", "setting": "[1]", "result": "restored intracellular Ca2+ in cells of the crypt"}]}, {"smiles": "O=c1ccn([C@@H]2O[C@H](COP(=O)(O)OP(=O)(O)OP(=O)(O)O)[C@@H](O)[C@H]2O)c(=O)[nH]1", "note": "[UTP, uridine triphosphate]", "values": [{"measurement": "Cl- (and liquid) secretion", "setting": "non-CFTR Cl- channels; aerosolized, CF airway epithelia", "result": "induces Cl- (and liquid) secretion"}, {"measurement": "mucociliary clearance", "setting": "non-CFTR Cl- channels; aerosolized, pilot studies in normal subjects", "result": "effective stimulator of mucociliary clearance"}, {"measurement": "tolerability", "setting": "non-CFTR Cl- channels; short-term aerosolized, normal subjects and patients with CF", "result": "well tolerated"}]}]}
